Some test systems named below: CAKI-1; COLO 205; DU-145; HL-60; HOP-62; MDA-MB-231; MOLT-4; OVCAR-3; PC-3; SK-OV-3; SN12C; SR; UACC-62; Malme-3M; NCI-H226; OVCAR-8; SF-268; NCI-H522; RXF 393; Hs-578T.
Experiment in all cases: NCI-60 cell line screen, 48 h

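1) Cells in 96-well plates. 2) Compound, 48 h, 5 concentrations. 3) Linear interpolation between surrounding doses. 4) Unreached endpoint = highest concentration. The concentration for 50% growth inhibition is given as GI50.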 The source made the active and inactive calls. Cut-off read from the data, not from the text of the source: active = GI50 up to about 1.1 µM and inactive = higher. Residues, ends and D or L forms follow the SMILES beside them. *: point of attachment. Boc = CC(C)(C)OC(=O)*; OBn = c1ccc(CO*)cc1 A value given as a limit tells only on which side of the number the result lay.

In the case of `CC1=CC[C@@H]2[C@@H](CC[C@@]2(C)O)C(C)(C)[C@H]1CC[C@@H]1[C@@]2(C)CC[C@@H](O)C(C)(C)O[C@@H]2CC[C@]1(C)O`, the GI50 with CAKI-1 is 20 µM (inactive); in the assay on COLO 205, 19.4 µM (inactive); in the assay with DU-145, 36.3 µM (inactive); in the assay with HL-60 it was 21.4 µM (inactive); with HOP-62, 23.2 µM (inactive); in the assay on MDA-MB-231, 17.5 µM (inactive). Moreover, the GI50 in the assay on MOLT-4 is 17.9 µM (inactive); with OVCAR-3 it was 42.8 µM (inactive); in the assay with PC-3 it was 40.6 µM (inactive); in the assay on SK-OV-3 it was 35.9 µM (inactive); in the assay on SN12C, 24.9 µM (inactive); with SR, 14.9 µM (inactive). Also, the GI50 in the assay with UACC-62 was 15.5 µM (inactive).
With `O=C(CC(C(=O)c1ccsc1)c1cccs1)c1ccsc1` (centres undefined), the GI50 was > 100 µM (inactive) in the assay with CAKI-1; 45.1 µM (inactive) in the assay with COLO 205; 75.7 µM (inactive) in the assay on DU-145; 31.8 µM (inactive) in the assay on HL-60; > 100 µM (inactive) in the assay on HOP-62; 92 µM (inactive) with MDA-MB-231. Besides, the GI50 was 28.5 µM (inactive) in the assay on MOLT-4; 56.8 µM (inactive) in the assay on Malme-3M; > 100 µM (inactive) in the assay with NCI-H226; 60.5 µM (inactive) with OVCAR-8; 28.5 µM (inactive) in the assay on PC-3; 85.9 µM (inactive) in the assay on SF-268. The GI50 with SK-OV-3 is 54.6 µM (inactive); in the assay on SN12C, 65.6 µM (inactive); in the assay with SR, 27.4 µM (inactive); in the assay on UACC-62, 31.5 µM (inactive).
With `CC1=NN(C(=O)CC(=O)N(C(=O)c2ccccc2Cl)c2ccc(C)cc2)C(=O)C1/N=N/c1ccc([N+](=O)[O-])cc1` (centres undefined), the GI50 is > 100 µM (inactive) in the assay with CAKI-1; > 43.6 µM (inactive) with COLO 205; > 51.9 µM (inactive) in the assay on HL-60; 53.5 µM (inactive) in the assay on HOP-62; > 100 µM (inactive) in the assay with MOLT-4; > 100 µM (inactive) in the assay with Malme-3M. For the same compound, the GI50 in the assay with NCI-H226 is > 76 µM (inactive); in the assay with NCI-H522 it was > 100 µM (inactive); in the assay on OVCAR-3 it was > 64.7 µM (inactive); with OVCAR-8, 27.9 µM (inactive); with RXF 393, 23.4 µM (inactive); in the assay on SF-268 it was 44.6 µM (inactive). Also, the GI50 is 31.8 µM (inactive) in the assay on SK-OV-3, > 100 µM (inactive) in the assay on SN12C, > 100 µM (inactive) with SR and 21.6 µM (inactive) with UACC-62.
Take `Cc1nc2sccn2c1C(=O)N/N=C1\SCC(=O)N1C`: the GI50 with CAKI-1, in the assay with COLO 205, in the assay with HL-60, with HOP-62, with MOLT-4 and in the assay with Malme-3M was > 100 µM (inactive) each time. Further, the GI50 in the assay with NCI-H226, with NCI-H522, in the assay with OVCAR-3, in the assay with OVCAR-8, with RXF 393 and in the assay on SF-268 was > 100 µM (inactive) in each case. Moreover, the GI50 with SK-OV-3, in the assay on SN12C, with SR and in the assay on UACC-62 was > 100 µM (inactive) in each case.
As to `O=C(/C=C/c1ccccc1Cl)c1cccc2ccccc12`, the GI50 is 12.5 µM (inactive) in the assay on CAKI-1; 19 µM (inactive) in the assay on COLO 205; 10.4 µM (inactive) with HL-60; 14.3 µM (inactive) in the assay with HOP-62; 2.16 µM (inactive) with MOLT-4; 16.1 µM (inactive) in the assay with Malme-3M. Moreover, the GI50 with NCI-H226 was 27.7 µM (inactive); with NCI-H522, 6.65 µM (inactive); in the assay with OVCAR-3 it was 4.4 µM (inactive); in the assay with OVCAR-8, 1.97 µM (inactive); in the assay on RXF 393, 14 µM (inactive); in the assay with SF-268, 12.9 µM (inactive). Also, the GI50 in the assay with SK-OV-3 is 18.9 µM (inactive); in the assay with SN12C, 48.6 µM (inactive); in the assay on SR, 2.52 µM (inactive); in the assay on UACC-62, 15.2 µM (inactive).
Consider `CN(C)/C=C/c1ccncc1`, for which the GI50 with CAKI-1 is > 100 µM (inactive); in the assay on COLO 205, > 100 µM (inactive); in the assay with DU-145, > 100 µM (inactive); in the assay on HOP-62 it was > 100 µM (inactive); with MDA-MB-231, > 100 µM (inactive); in the assay on MOLT-4 it was 28.7 µM (inactive). The GI50 in the assay with Malme-3M, in the assay on NCI-H226, in the assay on NCI-H522, in the assay on OVCAR-3, in the assay on OVCAR-8 and in the assay on PC-3 was > 100 µM (inactive) throughout. The GI50 in the assay on RXF 393, with SF-268, in the assay on SK-OV-3, in the assay with SN12C, in the assay on SR and with UACC-62 was > 100 µM (inactive) in each case.
Take `COc1ccc(C(=O)C2=NON3OC23C(=O)c2ccc(OC)cc2)cc1` (centres undefined): the GI50 in the assay on CAKI-1 is 2.81 µM (inactive); with COLO 205, 7.62 µM (inactive); in the assay on HL-60, 2.18 µM (inactive); with HOP-62, > 100 µM (inactive); with MOLT-4, 2.59 µM (inactive); in the assay with Malme-3M, 12.9 µM (inactive). Moreover, the GI50 is 16.8 µM (inactive) in the assay on NCI-H226; 1.82 µM (inactive) with NCI-H522; 9.59 µM (inactive) in the assay with OVCAR-3; 8.77 µM (inactive) in the assay on OVCAR-8; 4.09 µM (inactive) in the assay with RXF 393; 18.8 µM (inactive) in the assay on SF-268. The GI50 in the assay with SK-OV-3 was 19.5 µM (inactive); in the assay with SN12C, 15.3 µM (inactive); in the assay with SR, 2.56 µM (inactive); in the assay with UACC-62, 17.8 µM (inactive).
`CC(=O)c1sc(Nc2ccc(Cl)c(Cl)c2)nc1C`: the GI50 was 74.3 µM (inactive) in the assay on CAKI-1; > 100 µM (inactive) with COLO 205; > 100 µM (inactive) with DU-145; 69.2 µM (inactive) in the assay on HOP-62; 21 µM (inactive) in the assay with MDA-MB-231; 14.8 µM (inactive) in the assay on MOLT-4. In addition, the GI50 in the assay on Malme-3M is > 100 µM (inactive); in the assay on NCI-H226 it was 78 µM (inactive); with OVCAR-3, 29.8 µM (inactive); with OVCAR-8, > 100 µM (inactive); with RXF 393 it was 55.3 µM (inactive); with SF-268, > 100 µM (inactive). In addition, the GI50 in the assay on SK-OV-3 was > 100 µM (inactive); with SN12C, > 100 µM (inactive); with SR it was 60.3 µM (inactive); in the assay on UACC-62 it was > 100 µM (inactive).
Regarding `CC(=O)O[C@H]1C(=O)[C@@]2(C)C(C(OC(=O)c3ccccc3)C3[C@@H](O)C(OC(=O)[C@@H](O)[C@H](NC(=O)c4ccccc4)c4ccc(C(F)(F)F)cc4)C(C)=C1C3(C)C)[C@]1(OC(C)=O)CO[C@@H]1C[C@@H]2O` (some centres undefined), the GI50 in the assay with CAKI-1 was > 25 µM (inactive); in the assay with COLO 205 it was 9.55 µM (inactive); with HL-60, 7.98 µM (inactive); in the assay on HOP-62 it was > 25 µM (inactive); with MOLT-4 it was 11 µM (inactive); in the assay on Malme-3M, > 25 µM (inactive). The GI50 was > 25 µM (inactive) with NCI-H226; 7.59 µM (inactive) in the assay with NCI-H522; 17.7 µM (inactive) with OVCAR-3; > 25 µM (inactive) with OVCAR-8; 14.3 µM (inactive) with RXF 393; > 25 µM (inactive) in the assay on SF-268. In addition, the GI50 in the assay on SK-OV-3 is > 25 µM (inactive); in the assay on SN12C, > 25 µM (inactive); with SR, 8.43 µM (inactive); in the assay on UACC-62, 19.2 µM (inactive).
As to `COc1ccc(CCc2cc(OC)cc(OC)c2)cc1`, the GI50 is 13.2 µM (inactive) with CAKI-1; 12 µM (inactive) in the assay with COLO 205; 8.69 µM (inactive) with HL-60; 16.7 µM (inactive) with HOP-62; 8.17 µM (inactive) with MOLT-4; 33.7 µM (inactive) with Malme-3M. The GI50 in the assay on NCI-H226 is 30.7 µM (inactive); in the assay on NCI-H522, 4.98 µM (inactive); with OVCAR-3, 10.9 µM (inactive); with OVCAR-8 it was 66.4 µM (inactive); with RXF 393 it was 18 µM (inactive); with SF-268, 39.4 µM (inactive). For the same compound, the GI50 was 36.6 µM (inactive) in the assay on SK-OV-3, 45.9 µM (inactive) with SN12C, 9.71 µM (inactive) in the assay with SR and 11.9 µM (inactive) in the assay on UACC-62.
Take `CC[C@@]1(O)C(=O)OCc2c1cc1n(c2=O)Cc2cc3c(OC)cccc3nc2-1`: the GI50 in the assay with COLO 205 is 1.21 µM (inactive); in the assay with HL-60, < 0.01 µM (active); in the assay with Hs-578T it was 12.8 µM (inactive); in the assay on MOLT-4, 0.14 µM (active); in the assay with Malme-3M, 0.348 µM (active); in the assay with NCI-H226 it was 0.267 µM (active). The GI50 in the assay on NCI-H522 was 0.145 µM (active); in the assay with OVCAR-3 it was 0.521 µM (active); in the assay on RXF 393, 0.308 µM (active); in the assay with SF-268, < 0.1 µM (active); with SK-OV-3 it was 0.117 µM (active); with SN12C it was < 0.1 µM (active). Also, the GI50 with SR was 0.1 µM (active); with UACC-62, < 0.1 µM (active).
For the compound `CC(C)C(NC(=O)C(Cc1ccccc1)NC(=O)OC(C)(C)C)C(=O)NCC(=O)OCc1ccccc1` (stereo not drawn) (Boc-Phe-Val-Gly-OBn; configuration not given here), the GI50 in the assay with CAKI-1 was 18.8 µM (inactive); with COLO 205, 20.6 µM (inactive); in the assay with DU-145, 14.3 µM (inactive); in the assay on HL-60, 13.4 µM (inactive); in the assay with HOP-62, 19.2 µM (inactive); in the assay with MDA-MB-231 it was 16.6 µM (inactive). Moreover, the GI50 was 18.5 µM (inactive) with MOLT-4; 18.5 µM (inactive) with Malme-3M; 6.55 µM (inactive) with NCI-H522; 14.4 µM (inactive) in the assay on OVCAR-3; 19.5 µM (inactive) in the assay on OVCAR-8; 15.7 µM (inactive) in the assay on PC-3. Moreover, the GI50 in the assay with SF-268 was 14.7 µM (inactive); with SK-OV-3, 13.4 µM (inactive); with SN12C, 18 µM (inactive); with UACC-62, 16.9 µM (inactive).

(Values after ChEMBL document CHEMBL1201862, “PubChem BioAssay data set” (2004).)
